Reference: patent US20060258535A1, “METHOD OF USING SODIUM CARBONATE PEROXYHYDRATE AS AN HERBICIDE” (BIOSAFE SYSTEMS L.L.C.,, priority 2005, published 2006)

Assays:
[1] = system: most types of plant material; test: Spray solution over the tops of growing plant material; format: in vivo; details: diluted in water, sprayed over the tops of growing plant material, no foam
[2] = EPA determination; cited from earlier work
[3] = EPA determination; cited from earlier work; remark: listed apart in the source
[4] = system: algae, bacteria, fungi, viruses and bryophyte plant material such as mosses, liverworts, hornworts, lichens; test: 1% spray solution on simple celled plant material; format: in vivo
From the text: The pH of the resulting solution is typically alkaline, which activates the H2O2 for bleaching. The dry powder contains about 30% by weight w/w H2O2 and finds specialty use as a wood brightener and general cleaning aid.

[5] = EPA determination; cited from earlier work; remark: listed apart in the source
[6] = EPA determination, cited from earlier work

O=C([O-])[O-].O=C([O-])[O-].OO.OO.OO.[Na+].[Na+].[Na+].[Na+] [sodium carbonate peroxyhydrate]
phytotoxicity effects of spray solution [1]: minimal with some plant cell necrosis | eye damage [2]: severe irreversible eye damage | dermal irritation [3]: Dermal irritation also occurred | effect on simple celled plant material [4]: kill on contact | dermal sensitizer [5]: not considered a dermal sensitizer | toxicity, dermal exposure ([6]; dermal exposure): minimal to mild toxicity | toxicity, oral exposure ([6]; oral exposure): minimal to mild toxicity
